Experimental data: patent US10196363B2, “Dihydropyrimidin-2-one compounds and medical use thereof” (JAPAN TOBACCO INC., priority 2014, dated 2019)
Read-outs that look alike come from different tables or passages of the source.

Assays:
human RORγ = biological target: T1, human RORγ (Homo sapiens, UniProt P51449); assay: In vitro assay of inhibitory effect against RORγ transcriptional activity (GAL4-hRORγ LBD luciferase reporter gene assay in CHO cells); assay type: cell-based; conditions: for hRORγ luciferase activity, %-of-control: vehicle-control 0.2% DMSO alone = 100%
T1 construct: human RORγ, from Ser253 to Lys518; expressed in transfected cells; host or cells: CHO cells (Chinese hamster ovary), transient co-transfection with pG5-Luc
T1 sequence (P51449 253-518): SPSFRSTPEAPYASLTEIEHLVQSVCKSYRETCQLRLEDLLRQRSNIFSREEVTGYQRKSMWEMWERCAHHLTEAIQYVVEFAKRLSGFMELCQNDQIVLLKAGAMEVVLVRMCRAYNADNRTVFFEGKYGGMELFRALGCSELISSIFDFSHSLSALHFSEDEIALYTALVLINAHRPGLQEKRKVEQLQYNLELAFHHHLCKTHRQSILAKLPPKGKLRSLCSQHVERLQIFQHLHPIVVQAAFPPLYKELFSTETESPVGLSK
Summary of the method: (§1)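 Luciferase output, normalised to 0.2% DMSO vehicle (100%), served as the measure of RORγ transcriptional activity. The reporter was driven by GAL4-fused ligand-binding domains of human (residues 253–518) or mouse (251–516) RORγ in transiently transfected CHO cells. Cells received eight-point compound dilutions for 2 days, EC50 values were fitted, and cytotoxic points were dropped.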

mouse RORγ = biological target: T2, mouse RORγ (Mus musculus, UniProt P51450); assay: In vitro assay of inhibitory effect against RORγ transcriptional activity (GAL4-mRORγ LBD luciferase reporter gene assay in CHO cells); assay type: cell-based; conditions: for mRORγ luciferase activity, %-of-control: value in parentheses beside the > EC50 bound, vehicle-control 0.2% DMSO alone = 100%
T2 construct: mouse RORγ, from Ile251 to Lys516; expressed in transfected cells; host or cells: CHO cells (Chinese hamster ovary), transient co-transfection with pG5-Luc
T2 sequence (P51450 251-516): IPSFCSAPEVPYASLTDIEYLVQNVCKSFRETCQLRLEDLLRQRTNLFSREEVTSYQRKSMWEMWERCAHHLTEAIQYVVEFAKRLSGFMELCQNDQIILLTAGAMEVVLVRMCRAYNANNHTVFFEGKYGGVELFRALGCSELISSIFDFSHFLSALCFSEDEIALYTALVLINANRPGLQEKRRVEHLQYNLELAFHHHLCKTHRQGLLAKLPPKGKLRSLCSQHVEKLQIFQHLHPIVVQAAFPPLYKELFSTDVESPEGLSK
Summary of the method: as §1

[1] = GAL4-hRORγ LBD luciferase reporter, CHO cells, read-out: LUC EC50 hRORγ
[2] = GAL4-mRORγ LBD luciferase reporter, CHO cells, read-out: LUC EC50 mRORγ
[3] = GAL4-hRORγ LBD / pG5-Luc in CHO cells, 2 days incubation
[4] = GAL4-mRORγ LBD / pG5-Luc in CHO cells, 2 days incubation
[5] = value in parentheses beside the > EC50 bound

Row | SMILES | EC50 (human RORγ; [1]) [µM] | EC50 (mouse RORγ; [2]) [µM] | EC50 (human RORγ; [3]) [µM] | EC50 (mouse RORγ; [4]) [µM] | other results
1 | COCCC1=CN(c2ccc(C(=O)O)cn2)C(=O)N[C@@]1(C)c1ccc(CC2CCCCC2)c(Cl)c1 [Example 338] | 0.013 | 0.012 |  |  | 
2 | CC(C)(C)CCc1ccc(C2(C)NC(=O)N([C@H]3C[C@H](CO)C3)C=C2C(C)(C)CCC(=O)O)cc1Cl (single isomer, unassigned) [Example 182] |  |  | 0.027 | 0.076 | 
3 | CC(C)(C)C#Cc1ccc(C2NC(=O)N(CCCC(=O)O)C=C2C(C)(C)C)cc1Cl (racemic) [Example 187] |  |  | 0.172 | 0.063 | 
4 | CC(C)C1=CN(CCC(=O)O)C(=O)N[C@]1(C)c1ccc(C2CCC(C)(C)CC2)c(Cl)c1 [Example 117] |  |  | > 3.2 | > 8 | hRORγ luciferase activity, %-of-control (human RORγ; [5]): (106%); mRORγ luciferase activity, %-of-control (mouse RORγ): (76%)
5 | CC(C)C1=CN([C@@H]2CCCC[C@H]2C(=O)O)C(=O)N[C@@]1(C)c1ccc(CCC(C)(C)C)c(Cl)c1 [Example 235] | > 3.2 | 1.61 |  |  | hRORγ luciferase activity, %-of-control (human RORγ; value in parentheses beside the EC50 bound): (70%)
6 | CC(C)C1=CN(CCC(=O)O)C(=O)N[C@]1(C)c1ccc(C2=CCCCC2)c(Cl)c1 [Example 133] |  |  | > 8 | > 8 | hRORγ luciferase activity, %-of-control (human RORγ; [5]): (71%); mRORγ luciferase activity, %-of-control (mouse RORγ): (88%)
7 | CC(C)C1=CN(CCOCC(=O)O)C(=O)NC1(C)c1ccc(CCC(C)(C)C)c(Cl)c1 (single isomer, unassigned) [Example 39] |  |  | 0.02 | 0.026 | 
8 | CC(C)C1=CN(c2ccc(F)c(C(=O)O)c2)C(=O)N[C@@]1(C)c1ccc(CCC(C)(C)C)c(Cl)c1 [Example 208] | 0.021 | 0.04 |  |  | 
9 | CC(C)C1=CN(CCC(=O)O)C(=O)N[C@@]1(C)c1ccc(CCC(C)(C)O)c(Cl)c1 [Example 293] | 1.1 | 1.02 |  |  | 
10 | CC(C)Cc1ccc(C2(C)NC(=O)N(CCCC(=O)O)C=C2C(C)C)cc1 (racemic) [Example 106] |  |  | 1.16 | 0.616 | 
11 | CC(C)(C)CCc1ccc([C@]2(C)NC(=O)N(C3CC(F)(F)C3)C=C2[C@H]2C[C@@H](C(=O)O)C2)cc1Cl [Example 229] | 0.009 | 0.018 |  |  | 
12 | CC1=CN(CCCC(=O)O)C(=O)N[C@]1(C)c1ccc(CCC(C)(C)C)c(Cl)c1 [Example 60] |  |  | 15.3 | 12.4 | 
13 | CC(C)C1=CN(C[C@H]2C[C@H](C(=O)O)C2)C(=O)NC1(C)c1ccc(CCC(C)(C)C)c(Cl)c1 (mixture of isomers) [Example 80] |  |  | 0.016 | 0.017 | 
14 | CC(C)C1=CN(CCC(=O)O)C(=O)N[C@@]1(C)c1ccc(C2CC2C(C)(C)C)c(Cl)c1 (single isomer, unassigned) [Example 169] |  |  | 0.008 | 0.015 | 
15 | CC(C)(C)C1=CN(CCCC(=O)O)C(=O)NC1c1ccc(OCCC2CCCCC2)c(Cl)c1 (racemic) [Example 3] |  |  | 0.182 | 0.061 | 
16 | COC(C)CC1=CN(CCC(=O)O)C(=O)N[C@@]1(C)c1ccc([C@H]2C[C@@H](C(C)(C)C)C2)c(Cl)c1 (stereo partly shown) [Example 304] | 0.021 | 0.019 |  |  | 
17 | C[C@@]1(c2ccc(CC3CCCCC3)c(Cl)c2)NC(=O)N(CCC(=O)O)C=C1C1CC1 [Example 347] | 0.109 | 0.035 |  |  | 
18 | CC(C)C1=CN([C@H]2CC[C@H](C(=O)O)CC2)C(=O)N[C@]1(C)c1ccc(CCC(C)(C)C)c(Cl)c1 [Example 78] |  |  | 6.49 | 10.8 | 
19 | CC(C)C1=CN(CCC(=O)O)C(=O)N[C@@]1(C)c1ccc(C2CCC(C)(C)CC2)c(Cl)c1 [Example 118] |  |  | 0.019 | 0.017 | 
20 | CC(C)(C)CCc1ccc([C@]2(C)NC(=O)N(CCC(N)=O)C=C2[C@H]2C[C@@H](C(=O)O)C2)cc1Cl [Example 249] | 0.412 | 0.779 |  |  | 
21 | CC(C)(C)CCc1ccc([C@]2(C)NC(=O)N(C34CC(C(=O)O)(C3)C4)C=C2C2CC(F)(F)C2)cc1C(F)(F)F [Example 341] | 0.067 | 0.032 |  |  | 
22 | COCCC1=CN(C23CCC(C(=O)O)(C2)C3)C(=O)N[C@@]1(C)c1ccc(CCC(C)(C)C)c(Cl)c1 [Example 274] | 0.008 | 0.008 |  |  | 
